# Data reported in patent publication US20100267561A1, “HERBICIDAL PYRIDAZINONE DERIVATIVES” (priority 2007, published 2010).
# Tests used:
# Type in all cases: in vivo
# [1] = tested on: windgrass (Apera spica-venti); assay: Test B postemergence plant response; details: Postemergence
# Method in brief: (§1)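 Postemergence greenhouse test; plants at 2 to 18 cm (1- to 4-leaf stage) given formulated test chemical, held 13 to 15 days, then visually rated against untreated controls on a 0 (no effect) to 100 (complete control) scale; dash means no result.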
# [2] = tested on: winter barley (Hordeum vulgare); assay: Test B postemergence plant response; details: Postemergence
# Method in brief: as §1
# [3] = tested on: lambsquarters (Chenopodium album); assay: Test B pre-/postemergence plant response
# Method in brief: (§2)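 Preemergence and postemergence (plants 2-18 cm, 1- to 4-leaf stage) applications used test chemicals in a non-phytotoxic solvent with surfactant. Plants were held in a greenhouse 13 to 15 days, then rated visually against controls on a 0-100 scale (0 no effect, 100 complete control).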
# [4] = tested on: large crabgrass (Digitaria sanguinalis); assay: Test B pre-/postemergence plant response
# Method in brief: as §2
# [5] = tested on: yellow nutsedge (Cyperus esculentus); assay: Test B pre-/postemergence plant response
# Method in brief: as §2
# [6] = tested on: catchweed bedstraw (Galium aparine); assay: Test B pre-/postemergence plant response; details: Preemergence
# Method in brief: as §2
# [7] = tested on: cocklebur (Xanthium strumarium); assay: Test B pre-/postemergence plant response
# Method in brief: as §2
# [8] = tested on: goosegrass (Eleusine indica); assay: Test B pre-/postemergence plant response
# Method in brief: as §2
# [9] = tested on: blackgrass (Alopecurus myosuroides); assay: Test B pre-/postemergence plant response
# Method in brief: as §2
# [10] = tested on: common (oilseed) sunflower (Helianthus annuus); assay: Test B pre-/postemergence plant response; details: Preemergence
# Method in brief: as §2
# [11] = tested on: johnsongrass (Sorghum halepense); assay: Test B pre-/postemergence plant response
# Method in brief: as §2
# [12] = tested on: wheat (Triticum aestivum); assay: Test B pre-/postemergence plant response
# Method in brief: as §2
# [13] = tested on: giant foxtail (Setaria faberii); assay: Test B pre-/postemergence plant response
# Method in brief: as §2
# [14] = tested on: common ragweed (Ambrosia elation); assay: Test B pre-/postemergence plant response
# Method in brief: as §2
# [15] = tested on: wild oat (Avena fatua); assay: Test B pre-/postemergence plant response
# Method in brief: as §2
# [16] = 31 g ai/ha, scale 0 to 100, 0 no effect, 100 complete control
# [17] = Postemergence, 31 g ai/ha, scale 0 to 100, 0 no effect, 100 complete control
# [18] = Postemergence, 62 g ai/ha, scale 0 to 100
# [19] = Postemergence, 125 g ai/ha, scale 0 to 100
# [20] = Postemergence, 250 g ai/ha, scale 0 to 100
# [21] = Preemergence, 31 g ai/ha, 0 to 100 scale, 0 no effect, 100 complete control
# [22] = Preemergence, 125 g ai/ha, scale 0 to 100
# [23] = Preemergence, 250 g ai/ha, scale 0 to 100
# [24] = Preemergence, 62 g ai/ha, scale 0 to 100
# [25] = 31 g ai/ha, 0 to 100 scale, 0 no effect, 100 complete control
smiles,measurement,setting,value
Cc1cc(-c2ccc(Br)cc2)nn1-c1c(OC(=O)OC(C)C)cnn(C)c1=O [Compound 6],"Plant response rating, Windgrass",[1]; [16],90
same,"Plant response rating, Windgrass","[1]; 62 g ai/ha, scale 0 to 100",95
same,"Plant response rating, Windgrass","[1]; 125 g ai/ha, scale 0 to 100",100
same,"Plant response rating, Windgrass","[1]; 250 g ai/ha, scale 0 to 100",100
same,"Plant response rating, Barley",[2]; [16],30
same,"Plant response rating, Barley","[2]; 62 g ai/ha, scale 0 to 100",30
same,"Plant response rating, Barley","[2]; 125 g ai/ha, scale 0 to 100",80
same,"Plant response rating, Barley","[2]; 250 g ai/ha, scale 0 to 100",80
same,"Plant response rating, Lambsquarters",[3]; [17],0
same,"Plant response rating, Lambsquarters",[3]; [18],0
same,"Plant response rating, Lambsquarters",[3]; [19],20
same,"Plant response rating, Lambsquarters",[3]; [20],70
same,"Plant response rating, Lambsquarters",[3]; [21],0
same,"Plant response rating, Lambsquarters",[3]; [22],85
same,"Plant response rating, Lambsquarters",[3]; [23],95
same,"Plant response rating, Crabgrass, Large",[4]; [17],100
same,"Plant response rating, Crabgrass, Large",[4]; [18],100
same,"Plant response rating, Crabgrass, Large",[4]; [19],100
same,"Plant response rating, Crabgrass, Large",[4]; [20],100
same,"Plant response rating, Crabgrass, Large",[4]; [21],98
same,"Plant response rating, Crabgrass, Large",[4]; [24],100
same,"Plant response rating, Crabgrass, Large",[4]; [22],100
same,"Plant response rating, Crabgrass, Large",[4]; [23],100
same,"Plant response rating, Nutsedge, Yellow",[5]; [17],0
same,"Plant response rating, Nutsedge, Yellow",[5]; [18],0
same,"Plant response rating, Nutsedge, Yellow",[5]; [19],0
same,"Plant response rating, Nutsedge, Yellow",[5]; [20],0
same,"Plant response rating, Nutsedge, Yellow",[5]; [21],0
same,"Plant response rating, Nutsedge, Yellow",[5]; [24],0
same,"Plant response rating, Nutsedge, Yellow",[5]; [22],0
same,"Plant response rating, Nutsedge, Yellow",[5]; [23],0
same,"Plant response rating, Galium",[6]; [25],0
same,"Plant response rating, Galium","[6]; 125 g ai/ha, scale 0 to 100",70
same,"Plant response rating, Galium","[6]; 250 g ai/ha, scale 0 to 100",70
same,"Plant response rating, Cocklebur",[7]; [17],0
same,"Plant response rating, Cocklebur",[7]; [18],0
same,"Plant response rating, Cocklebur",[7]; [19],0
same,"Plant response rating, Cocklebur",[7]; [20],40
same,"Plant response rating, Cocklebur",[7]; [21],0
same,"Plant response rating, Cocklebur",[7]; [24],0
same,"Plant response rating, Cocklebur",[7]; [22],0
same,"Plant response rating, Cocklebur",[7]; [23],0
same,"Plant response rating, Goosegrass",[8]; [17],95
same,"Plant response rating, Goosegrass",[8]; [18],100
same,"Plant response rating, Goosegrass",[8]; [19],100
same,"Plant response rating, Goosegrass",[8]; [20],100
same,"Plant response rating, Goosegrass",[8]; [21],80
same,"Plant response rating, Goosegrass",[8]; [24],95
same,"Plant response rating, Goosegrass",[8]; [22],100
same,"Plant response rating, Goosegrass",[8]; [23],100
same,Blackgrass plant response rating,"[9]; 250 g ai/ha, preemergence, 0-100 scale",100
same,"Plant response rating, Blackgrass",[9]; [17],100
same,"Plant response rating, Blackgrass",[9]; [18],100
same,"Plant response rating, Blackgrass",[9]; [19],100
same,"Plant response rating, Blackgrass",[9]; [20],100
same,"Plant response rating, Blackgrass",[9]; [21],80
same,"Plant response rating, Blackgrass",[9]; [24],100
same,"Plant response rating, Blackgrass",[9]; [22],100
same,"Plant response rating, Sunflower",[10]; [25],0
same,"Plant response rating, Sunflower","[10]; 62 g ai/ha, scale 0 to 100",0
same,"Plant response rating, Sunflower","[10]; 125 g ai/ha, scale 0 to 100",0
same,"Plant response rating, Sunflower","[10]; 250 g ai/ha, scale 0 to 100",0
same,"Plant response rating, Johnsongrass",[11]; [17],0
same,"Plant response rating, Johnsongrass",[11]; [18],0
same,"Plant response rating, Johnsongrass",[11]; [21],60
same,"Plant response rating, Johnsongrass",[11]; [24],90
same,"Plant response rating, Johnsongrass",[11]; [22],95
same,"Plant response rating, Johnsongrass",[11]; [23],100
same,"Plant response rating, Wheat",[12]; [17],90
same,"Plant response rating, Wheat",[12]; [18],100
same,"Plant response rating, Wheat",[12]; [19],100
same,"Plant response rating, Wheat",[12]; [20],100
same,"Plant response rating, Wheat",[12]; [21],35
same,"Plant response rating, Wheat",[12]; [24],80
same,"Plant response rating, Wheat",[12]; [22],90
same,"Plant response rating, Wheat",[12]; [23],90
same,"Plant response rating, Foxtail, Giant",[13]; [17],100
same,"Plant response rating, Foxtail, Giant",[13]; [18],100
same,"Plant response rating, Foxtail, Giant",[13]; [19],100
same,"Plant response rating, Foxtail, Giant",[13]; [20],100
same,"Plant response rating, Foxtail, Giant",[13]; [21],100
same,"Plant response rating, Foxtail, Giant",[13]; [24],100
same,"Plant response rating, Foxtail, Giant",[13]; [22],100
same,"Plant response rating, Foxtail, Giant",[13]; [23],100
same,"Plant response rating, Ragweed",[14]; [17],0
same,"Plant response rating, Ragweed",[14]; [18],0
same,"Plant response rating, Ragweed",[14]; [19],0
same,"Plant response rating, Ragweed",[14]; [20],50
same,"Plant response rating, Ragweed",[14]; [21],0
same,"Plant response rating, Ragweed",[14]; [24],0
same,"Plant response rating, Ragweed",[14]; [22],20
same,"Plant response rating, Ragweed",[14]; [23],20
same,"Plant response rating, Oat, Wild",[15]; [17],100
same,"Plant response rating, Oat, Wild",[15]; [18],100
same,"Plant response rating, Oat, Wild",[15]; [19],100
same,"Plant response rating, Oat, Wild",[15]; [20],100
same,"Plant response rating, Oat, Wild",[15]; [21],50
same,"Plant response rating, Oat, Wild",[15]; [24],50
same,"Plant response rating, Oat, Wild",[15]; [22],85
same,"Plant response rating, Oat, Wild",[15]; [23],85
